According to ChEMBL document CHEMBL5634173, “Identification of a novel histone H2A mono-ubiquitination-inhibiting cell-active small molecule” (Bioorg Med Chem Lett, 2024):
Activity calls are given as the source filed them. The calls are words filed in the database; no cut-off is given here.

Key:
[1] = system: U2OS; assay: Antiproliferative activity against human U2OS cells assessed as reduction in cell viability at 30 uM incubated for 72 hrs; type: functional, cell-based
[2] = system: U2OS; assay: Antiproliferative activity against human U2OS cells assessed as reduction in cell viability incubated for 72 hrs; type: functional, cell-based
[3] = system: U2OS; assay: Antiproliferative activity against human U2OS cells assessed as reduction in cell viability at 50 uM incubated for 72 hrs; type: functional, cell-based
[4] = system: U2OS; assay: Inhibition of histone H2A ubiquitination at K119 residue in human U2OS cells assessed as decrease in H2AK119ub1 level incubated for 1 hr by Western blotting analysis; type: cell-based; conditions: dose 24-96 µM
[5] = system: U2OS; assay: Antiproliferative activity against human U2OS cells assessed as reduction in cell viability at 30 uM incubated for 72 hrs relative to control; type: functional

## COc1cccc(C=C2C(=O)c3ccccc3C2=O)c1
[1]
  Activity: inactive

## Cc1cccc(C)c1C=C1C(=O)c2ccccc2C1=O
[1]
  Activity: inactive

## O=C1C(=Cc2cccnc2)C(=O)c2ccccc21
[2]
  Activity: Dose-Dependent Effect
  IC50: 45.2 µM
[3]
  Activity: Active

## O=C1C(=Cc2ccccc2[N+](=O)[O-])C(=O)c2ccccc21
[2]
  IC50: 39.6 µM
[1]
  Activity: Active

## COc1ccccc1C=C1C(=O)c2ccccc2C1=O
[1]
  Activity: inactive

## COc1ccc(C=C2C(=O)c3ccccc3C2=O)cc1
[1]
  Activity: inactive

## O=C1C(=Cc2cccc([N+](=O)[O-])c2)C(=O)c2ccccc21
[2]
  IC50: 24 µM
[1]
  Activity: Active

## CCc1c(-c2cccc3[nH]ccc23)[nH]c(C(=O)O)c1-c1ccccc1Cl
[3]
  Activity: inactive

## O=C1C(=Cc2c([N+](=O)[O-])cccc2[N+](=O)[O-])C(=O)c2ccccc21
[2]
  IC50: 5.86 µM
[4]
  inhibition: Dose-Dependent Effect
[5]
  Activity: 100%

## N#Cc1cccc(C=C2C(=O)c3ccccc3C2=O)c1
[2]
  IC50: 32.1 µM

## O=C1C(=Cc2ccc([N+](=O)[O-])cc2[N+](=O)[O-])C(=O)c2ccccc21
[2]
  IC50: 24 µM

## Cc1ccccc1C=C1C(=O)c2ccccc2C1=O
[1]
  Activity: inactive

## O=C1C(=Cc2cccc(F)c2)C(=O)c2ccccc21
[1]
  Activity: inactive

## Cc1ccc(C=C2C(=O)c3ccccc3C2=O)cc1
[1]
  Activity: inactive

## O=C1C(=Cc2ccccc2)C(=O)c2ccccc21
[1]
  Activity: inactive

## O=C1C(=Cc2ccc([N+](=O)[O-])cc2)C(=O)c2ccccc21
[2]
  IC50: 33.5 µM
[1]
  Activity: Active

## Cc1cccc(C=C2C(=O)c3ccccc3C2=O)c1
[1]
  Activity: inactive
